Measured values from article PMC4782294, “ERK mediated upregulation of death receptor 5 overcomes the lack of p53 functionality in the diaminothiazole DAT1 induced apoptosis in colon cancer models: efficiency of DAT1 in Ras-Raf mutated cells” (Molecular Cancer, 2016).

Assays:
HCT116 p53 -/- = test: MTT cytotoxicity assay; assay type: cell-based; conditions: Homo sapiens, HCT-116, 48 h
Protocol: (§1) Cells were seeded in 96 well plates. At about70 % confluency, they were treated with different concentrations of drugs either individually or in combination. After 48 h, MTT assay was done (Mossmann 1983) and absorbance was measured at 570 nm (Biorad Microplate reader). Percentage viability was plotted against the respective concentrations of the drugs and half inhibitory concentration (IC50) was calculated with the non linear regression programme of Origin.

HT 29 = test: MTT cytotoxicity assay; assay type: cell-based; conditions: Homo sapiens, HT 29, 48 h
Protocol: as §1

SW 620 = test: MTT cytotoxicity assay; assay type: cell-based; conditions: Homo sapiens, SW 620, 48 h
Protocol: as §1

SW 480 = test: MTT cytotoxicity assay; assay type: cell-based; conditions: Homo sapiens, SW480, SW 480, 48 h
Protocol: as §1

HCT116 [1] = test: MTT cytotoxicity assay; assay type: cell-based; conditions: Homo sapiens, HCT-116, HCT116, 48 h
Protocol: as §1

Colo 320 DM [2] = test: DAPI staining for detection of apoptosis (chromatin condensation); assay type: cell-based; conditions: approximately 1.5 times the IC50 concentration, 24 h
Protocol: (§2) The cells were grown on coverslips in 24 well plates and incubated with respective drug or inhibitor for 24 h. They were then washed with PBS, fixed with chilled methanol-EDTA for 10 min and rehydrated with PBS for 10 min at room temperature. Successively, the cells were treated with DAPI (0.5 μg/ml) for 2 min in the dark. The coverslips were then mounted on fluoromount G and viewed at 40X in the UV region using a fluorescence microscope (Olympus IX71).

HCT116 p53 −/− = test: as above; assay type: cell-based
Protocol: as §2

Caco2 = test: as above; assay type: cell-based; conditions: Caco2, approximately 1.5 times the IC50 concentration, 24 h
Protocol: as §2

HCT116 [3] = test: as above; assay type: cell-based
Protocol: as §2

DR5 = DR5 induction by western blotting; assay type: cell-based; conditions: cells with non functional p53 (HCT116 p53 −/−, SW620, SW480, HT29), ~1.5 X IC50
Protocol: (§3) Cells were grown to 70–80 % confluency in 60 mm culture dishes. After drug treatment, they were harvested and lysed. Protein samples from tissues were collected by homogenizing the tissue in the presence of lysis buffer, followed by centrifugation for 20 min. The protein samples were run in a 10–12 % gel and transferred on to a PVDF membrane. The membranes were probed with specific primary antibodies (1:1000) overnight followed by secondary antibodies conjugated with horse radish peroxidase/alkaline phosphatase (1:2000) for 1 hr at room temperature and were developed by chemiluminescence or alkaline phosphatase method.

[4] = test system: HCT116 p53 −/− xenograft tumours; test: Colon cancer xenograft study; assay type: in vivo, SCID/NOD mice
Protocol: (§4) SCID/NOD mice were divided into groups of ten and allowed to acclimatize. After 5 days, tumours were raised by injecting HCT116 or HCT116 p53 −/− cells (1.5 × 10^5 cells suspended in PBS) subcutaneously in the inner flank region. Once the tumour volumes reached 20–80 mm^3, drug was administered intraperitoneally, thrice a week at different concentrations.

HCT116 xenograft tumours = test: Colon cancer xenograft study; assay type: in vivo, SCID/NOD mice
Protocol: as §4

Swiss Albino mice [5] = test: Acute toxicity study; assay type: in vivo; conditions: for Final weight: after 14 days; for Initial weight: before drug administration
Protocol: In acute toxicity studies, Swiss Albino mice were divided in to six groups of six animal each and DAT1 (12–50 mg/kg) was administered intraperitoneally (i.p) and observed for 14 days for signs of weight loss, dehydration or mortality. DAT1 was dissolved in vehicle cremaphor:ethanol (1:1) and diluted in 0.9 % saline.
Swiss Albino mice were divided into 6 groups of 6 mice each and were injected with either DAT1 or vehicle intraperitoneally. […] Group I: 12mg/kg, Group II: 20 mg/kg, Group III: 30 mg/kg, Group IV: 40 mg/kg, Group V: 50 mg/kg

Swiss Albino mice [6] = test: Sub-acute toxicity study; assay type: in vivo; conditions: for RBC / WBC / ALP / ALT / AST / BUN / Creatinine: 3 months; for ALP / ALT / AST / BUN / Creatinine: serum
Protocol: In sub-acute toxicity studies, Swiss albino mice were divided into five groups of eight animals each. Three groups of Swiss Albino mice were administered (i.p injection) with 4, 8 or 16 mg/kg DAT1, and the control and vehicle control groups were administered with 0.9 % saline or vehicle respectively. Injections were given every alternate day for the first 10 days and after that, twice weekly for a period of 3 months. After 3 months animals were sacrificed and whole blood, liver and kidney were collected. Hematotoxicity was checked by RBC and WBC count. Hepatotoxicity was measured by monitoring the serum ALT and AST levels. Nephrotoxicity was measured by monitoring BUN and creatinine levels in the serum. ALP activity was measured for detection of liver or bone toxicity.

Colo 320 DM [7] = test: MTT cytotoxicity assay; assay type: cell-based; conditions: Homo sapiens, 48 h
Protocol: as §1

Caco 2 = test: MTT cytotoxicity assay; assay type: cell-based; conditions: Homo sapiens, Caco 2, 48 h
Protocol: as §1

caspase 8 = test: Caspase 8 activation by western blotting; assay type: cell-based; conditions: cell lines irrespective of their p53 status
Protocol: as §3

ERK = ERK activation by western blotting; assay type: cell-based
Protocol: as §3

O=c1[nH]cc(F)c(=O)[nH]1 [5 fluoro uracil, 5-fluorouracil]
IC50 (HCT116 p53 -/-): 19.3 ± 1.34 µM
IC50 (HT 29): 20.2 ± 0.77 µM
IC50 (SW 620): 9.65 ± 0.33 µM
IC50 (SW 480): 18.7 ± 0.68 µM
IC50 (HCT116 [1]): 8.69 ± 0.54 µM

COc1ccc(Nc2nc(N)c(C(=O)c3ccccc3)s2)cc1 [DAT1, 4-Amino-5-benzoyl-2-(4-methoxyphenylamino)thiazole]
apoptosis (chromosome condensation) (Colo 320 DM [2]): 38%
percentage of apoptotic cells (HCT116 p53 −/−; DAT1 alone, 24 h): 60%
percentage of apoptotic cells (HCT116 p53 −/−; DAT1 in the presence of MEK inhibitor U0126): 5%
apoptosis (chromosome condensation) (Caco2): 32%
percentage of apoptotic cells (HCT116 [3]; HCT116, DAT1 alone, 24 h): 67%
percentage of apoptotic cells (HCT116 [3]; HCT116, DAT1 in the presence of MEK inhibitor U0126): 3%
DR5 upregulation (DR5): caused DR5 upregulation
reduction in tumour inhibition vs parental HCT116 ([4]; 20 mg/kg): about 19%
tumour inhibition ([4]; HCT116 p53 −/− tumours, 20 mg/kg i.p., thrice a week, 28 days): 53.4%
mean tumour volume ([4]; HCT116 p53−/− xenograft, treatment for 28 days, i.p.): reduced the mean tumour volume effectively in a concentration dependent way
tumour inhibition (HCT116 xenograft tumours; HCT116 tumours, 20 mg/kg i.p., thrice a week, 28 days): 72.3%
mean tumour volume (HCT116 xenograft tumours; HCT116 xenograft, treatment for 28 days, i.p.): reduced the mean tumour volume effectively in a concentration dependent way
Final weight (Swiss Albino mice [5]; 12 mg/kg i.p.): 33.1 ± 1.56 g
Initial weight (Swiss Albino mice [5]; 12 mg/kg i.p.): 32.4 ± 1.34 g
Final weight (Swiss Albino mice [5]; 20 mg/kg i.p.): 33.46 ± 3.87 g
Initial weight (Swiss Albino mice [5]; 20 mg/kg i.p.): 32.8 ± 5.44 g
Final weight (Swiss Albino mice [5]; 30 mg/kg i.p.): 29.86 ± 2.82 g
Initial weight (Swiss Albino mice [5]; 30 mg/kg i.p.): 27.2 ± 1.22 g
Final weight (Swiss Albino mice [5]; 40 mg/kg i.p.): 27.8 ± 2.67 g
Initial weight (Swiss Albino mice [5]; 40 mg/kg i.p.): 26.6 ± 2.4 g
Final weight (Swiss Albino mice [5]; 50 mg/kg i.p.): 26.12 ± 2.14 g
Initial weight (Swiss Albino mice [5]; 50 mg/kg i.p.): 25.6 ± 2.03 g
RBC (Swiss Albino mice [6]; 4 mg/kg i.p.): 4.42 ± 0.75 million/mm^3
WBC (Swiss Albino mice [6]; 4 mg/kg i.p.): 8100 ± 1979 per mm^3
ALP (Swiss Albino mice [6]; 4 mg/kg i.p.): 158.32 ± 8.32 U/L
ALT (Swiss Albino mice [6]; 4 mg/kg i.p.): 54.38 ± 4.15 U/L
AST (Swiss Albino mice [6]; 4 mg/kg i.p.): 128 ± 25.1 U/L
BUN (Swiss Albino mice [6]; 4 mg/kg i.p.): 29.8 ± 1.25 mg/dL
Creatinine (Swiss Albino mice [6]; 4 mg/kg i.p.): 0.82 ± 0.1 mg/dL
RBC (Swiss Albino mice [6]; 8 mg/kg i.p.): 4.48 ± 0.34 million/mm^3
WBC (Swiss Albino mice [6]; 8 mg/kg i.p.): 6220 ± 1626.34 per mm^3
ALP (Swiss Albino mice [6]; 8 mg/kg i.p.): 136.48 ± 10.69 U/L
ALT (Swiss Albino mice [6]; 8 mg/kg i.p.): 53.845 ± 4.81 U/L
AST (Swiss Albino mice [6]; 8 mg/kg i.p.): 128.165 ± 1.87 U/L
Creatinine (Swiss Albino mice [6]; 8 mg/kg i.p.): 0.76 ± 0.07 mg/dL
RBC (Swiss Albino mice [6]; 16 mg/kg i.p.): 4.475 ± 0.26 million/mm^3
WBC (Swiss Albino mice [6]; 16 mg/kg i.p.): 4550 ± 264.575 per mm^3
ALP (Swiss Albino mice [6]; 16 mg/kg i.p.): 155.61 ± 15.15 U/L
ALT (Swiss Albino mice [6]; 16 mg/kg i.p.): 148.39 ± 14.55 U/L
AST (Swiss Albino mice [6]; 16 mg/kg i.p.): 162.67 ± 12.73 U/L
BUN (Swiss Albino mice [6]; 16 mg/kg i.p.): 29.8 ± 1.27 mg/dL
Creatinine (Swiss Albino mice [6]; 16 mg/kg i.p.): 0.58 ± 0.09 mg/dL
body weight change (Swiss Albino mice [6]; 4, 8 or 16 mg/kg i.p., end of 3 months): no significant change in the weight
IC50 (HCT116 p53 -/-): 0.709 ± 0.08 µM
IC50 (HT 29): 0.2 ± 0.08 µM
IC50 (Colo 320 DM [7]): 0.655 ± 0.048 µM
IC50 (SW 620): 0.42 ± 0.07 µM
IC50 (Caco 2): 5.32 ± 0.162 µM
IC50 (SW 480): 0.795 ± 0.09 µM
IC50 (HCT116 [1]): 0.3 ± 0.08 µM
caspase 8 activation (caspase 8): caused caspase 8 activation
ERK activation (ERK; Colo 320 DM or Caco2 cell lines with wild type Ras or Raf, ~1.5 times IC50): unable to activate ERK
P-ERK activation (ERK; HCT116 and HCT116 p53−/− cells): caused P-ERK activation

CC(=O)O[C@H]1C(=O)[C@@]2(C)[C@H]([C@H](OC(=O)c3ccccc3)[C@]3(O)C[C@H](OC(=O)[C@H](O)[C@@H](NC(=O)c4ccccc4)c4ccccc4)C(C)=C1C3(C)C)[C@]1(OC(C)=O)CO[C@@H]1C[C@@H]2O [Taxol, paclitaxel]
IC50 (HCT116 p53 -/-): 0.006 ± 0.002 µM
IC50 (HT 29): 0.01 ± 0.0014 µM
IC50 (SW 620): 0.0245 ± 0.006 µM
IC50 (SW 480): 0.0315 ± 0.0014 µM
IC50 (HCT116 [1]): 0.014 ± 0.007 µM

CC[C@]1(O)C[C@@H]2CN(CCc3c([nH]c4ccccc34)[C@@](C(=O)OC)(c3cc4c(cc3OC)N(C)[C@H]3[C@@](O)(C(=O)OC)[C@H](OC(C)=O)[C@]5(CC)C=CCN6CC[C@]43[C@@H]65)C2)C1 [Vinblastine]
apoptosis induction (HCT116 p53 −/−; 0.01 μM, 24 h): failed to induce apoptosis
apoptosis induction (HCT116 [3]; HCT116 p53 wild type, 0.01 μM, 24 h): large apoptotic response
IC50 (HCT116 p53 -/-): 0.0195 ± 0.0007 µM
IC50 (HT 29): 0.0015 ± 0.0007 µM
IC50 (SW 620): 0.3 ± 0.09 µM
IC50 (SW 480): 3.39 ± 0.247 µM
IC50 (HCT116 [1]): 0.004 ± 0.002 µM
